Test results taken from patent US20230085307A1, “PYRIDAZINONE COMPOUND AND HERBICIDE” (NISSAN CHEMICAL CORPORATION, priority 2019, published 2023).

What was measured:
[1] = system: southern crabgrass; test: Test Example 5: herbicidal effect by foliage application, plastic box (Table 20, symbol F); format: in vivo, southern crabgrass (Digitaria ciliaris); details: foliage application, AAH 320 g/ha, evaluated three weeks after application
In short: (§1)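 Plants were sown into sterilized diluvial soil under about 1.5 cm cover and kept in a greenhouse at 25° C. to 30° C. Fourteen days on, foliage received an even spray of the diluted emulsion. Herbicidal or crop effect was judged three weeks afterwards.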

[2] = system: barnyard grass; test: Test Example 3: herbicidal effect by foliage application, Wagner pot (Table 18, symbol H); format: in vivo, barnyard grass (Echinochloa crus-galli); details: amount of applied herbicide 320 g/ha
In short: (§2)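 Plants were sown in alluvial soil held under 0.1–0.5 cm standing water and grown 14 days in a greenhouse at 25–30 °C. An emulsifiable formulation, water-diluted to the set dose, was then sprayed onto the foliage, and effects were scored three weeks later using previously defined criteria.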

[3] = system: southern crabgrass; test: Test Example 4: herbicidal effect by soil treatment (Table 19, symbol F); format: in vivo, southern crabgrass (Digitaria ciliaris); details: amount of applied herbicide 320 g/ha
In short: (§3)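 In this soil treatment, the formulated compound reached the seeds only through the soil: seeds were buried about 1.5 cm deep in sterilized diluvial soil, then the diluted emulsion was sprayed over the surface. After three weeks at 25° C. to 30° C. in a greenhouse, effects were graded on criteria from an earlier test.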

[4] = system: barnyard grass; test: Test Example 4: herbicidal effect by soil treatment (Table 19, symbol H); format: in vivo, barnyard grass (Echinochloa crus-galli); details: amount of applied herbicide 320 g/ha
In short: as §3

[5] = system: rice flat sedge; test: Test Example 3: herbicidal effect by foliage application, Wagner pot (Table 18, symbol E); format: in vivo, rice flat sedge (Cyperus iria); details: amount of applied herbicide 320 g/ha
In short: as §2

[6] = system: late watergrass; test: Test Example 1: herbicidal activity, application before weed generation under submerged conditions (Table 16, symbol A); format: in vivo, late watergrass (Echinochloa oryzicola); details: amount of applied herbicide 320 g/ha
In short: (§4)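 Alluvial soil was flooded to 4 cm depth, weed seeds were sown mixed and 2.5-leaf rice seedlings were transplanted. On sowing day, the compound's emulsion, diluted in water to a set dose, was applied to the water surface. Plants grew at 25–30 °C and were scored 0–5 after three weeks.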

[7] = system: blackgrass; test: Test Example 5: herbicidal effect by foliage application, plastic box (Table 20, symbol J); format: in vivo, blackgrass (Alopecurus myosuroides); details: foliage application, AAH 320 g/ha, evaluated three weeks after application
In short: as §1

[8] = system: lambsquarters; test: Test Example 5: herbicidal effect by foliage application, plastic box (Table 20, symbol O); format: in vivo, lambsquarters (Chenopodium album); details: foliage application, AAH 320 g/ha, evaluated three weeks after application
In short: as §1

[9] = system: Italian ryegrass; test: Test Example 4: herbicidal effect by soil treatment (Table 19, symbol K); format: in vivo, Italian ryegrass (Lolium multiflorum); details: amount of applied herbicide 320 g/ha
In short: as §3

[10] = system: Chinese sprangletop; test: Test Example 3: herbicidal effect by foliage application, Wagner pot (Table 18, symbol D); format: in vivo, chinese sprangletop (Leptochloa chinensis); details: amount of applied herbicide 320 g/ha
In short: as §2

[11] = system: redroot pigweed; test: Test Example 4: herbicidal effect by soil treatment (Table 19, symbol N); format: in vivo, redroot pigweed (Amaranthus retroflexus); details: amount of applied herbicide 320 g/ha
In short: as §3

[12] = system: blackgrass; test: Test Example 4: herbicidal effect by soil treatment (Table 19, symbol J); format: in vivo, blackgrass (Alopecurus myosuroides); details: amount of applied herbicide 320 g/ha
In short: as §3

[13] = system: redroot pigweed; test: Test Example 5: herbicidal effect by foliage application, plastic box (Table 20, symbol N); format: in vivo, redroot pigweed (Amaranthus retroflexus); details: foliage application, AAH 320 g/ha, evaluated three weeks after application
In short: as §1

[14] = system: persian speedwell; test: Test Example 4: herbicidal effect by soil treatment (Table 19, symbol R); format: in vivo, Persian speedwell (Veronica persica); details: amount of applied herbicide 320 g/ha
In short: as §3

[15] = system: Italian ryegrass; test: Test Example 5: herbicidal effect by foliage application, plastic box (Table 20, symbol K); format: in vivo, Italian ryegrass (Lolium multiflorum); details: foliage application, AAH 320 g/ha, evaluated three weeks after application
In short: as §1

[16] = system: Japanese bulrush; test: Test Example 1: herbicidal activity, application before weed generation under submerged conditions (Table 16, symbol B); format: in vivo, Japanese bulrush (Schoenoplectus juncoides); details: amount of applied herbicide 320 g/ha
In short: as §4

[17] = system: persian speedwell; test: Test Example 5: herbicidal effect by foliage application, plastic box (Table 20, symbol R); format: in vivo, Persian speedwell (Veronica persica); details: foliage application, AAH 320 g/ha, evaluated three weeks after application
In short: as §1

[18] = system: barnyard grass; test: Test Example 5: herbicidal effect by foliage application, plastic box (Table 20, symbol H); format: in vivo, barnyard grass (Echinochloa crus-galli); details: foliage application, AAH 320 g/ha, evaluated three weeks after application
In short: as §1

[19] = system: velvetleaf; test: Test Example 4: herbicidal effect by soil treatment (Table 19, symbol M); format: in vivo, velvetleaf (Abutilon theophrasti); details: amount of applied herbicide 320 g/ha
In short: as §3

[20] = system: green foxtail; test: Test Example 5: herbicidal effect by foliage application, plastic box (Table 20, symbol G); format: in vivo, green foxtail (Setaria viridis); details: foliage application, AAH 320 g/ha, evaluated three weeks after application
In short: as §1

[21] = system: wild oat; test: Test Example 5: herbicidal effect by foliage application, plastic box (Table 20, symbol I); format: in vivo, wild oat (Avena fatua); details: foliage application, AAH 320 g/ha, evaluated three weeks after application
In short: as §1

[22] = system: wild oat; test: Test Example 4: herbicidal effect by soil treatment (Table 19, symbol I); format: in vivo, wild oat (Avena fatua); details: amount of applied herbicide 320 g/ha
In short: as §3

[23] = system: green foxtail; test: Test Example 4: herbicidal effect by soil treatment (Table 19, symbol G); format: in vivo, green foxtail (Setaria viridis); details: amount of applied herbicide 320 g/ha
In short: as §3

[24] = system: windgrass; test: Test Example 4: herbicidal effect by soil treatment (Table 19, symbol L); format: in vivo, windgrass (Apera spica-venti); details: amount of applied herbicide 320 g/ha
In short: as §3

[25] = system: lambsquarters; test: Test Example 4: herbicidal effect by soil treatment (Table 19, symbol O); format: in vivo, lambsquarters (Chenopodium album); details: amount of applied herbicide 320 g/ha
In short: as §3

[26] = system: chickweed; test: Test Example 4: herbicidal effect by soil treatment (Table 19, symbol P); format: in vivo, common chickweed (Stellaria media); details: amount of applied herbicide 320 g/ha
In short: as §3

[27] = system: windgrass; test: Test Example 5: herbicidal effect by foliage application, plastic box (Table 20, symbol L); format: in vivo, windgrass (Apera spica-venti); details: foliage application, AAH 320 g/ha, evaluated three weeks after application
In short: as §1

[28] = system: velvetleaf; test: Test Example 5: herbicidal effect by foliage application, plastic box (Table 20, symbol M); format: in vivo, velvetleaf (Abutilon theophrasti); details: foliage application, AAH 320 g/ha, evaluated three weeks after application
In short: as §1

[29] = system: chickweed; test: Test Example 5: herbicidal effect by foliage application, plastic box (Table 20, symbol P); format: in vivo, common chickweed (Stellaria media); details: foliage application, AAH 320 g/ha, evaluated three weeks after application
In short: as §1

[30] = system: oval-leafed pondweed; test: Test Example 1: herbicidal activity, application before weed generation under submerged conditions (Table 16, symbol C); format: in vivo, oval-leafed pondweed (Monochoria vaginalis); details: amount of applied herbicide 320 g/ha
In short: as §4

Structure (SMILES) | F: southern crabgrass, herbicidal effect (criteria 0-5) [1] | herbicidal effect on H: barnyard grass [2] | herbicidal effect, F: southern crabgrass [3] | herbicidal effect, H: barnyard grass [4] | herbicidal effect on E: rice flat sedge [5] | Herbicidal effect, A: late watergrass [6] | J: blackgrass, herbicidal effect (criteria 0-5) [7] | O: lambsquarters, herbicidal effect (criteria 0-5) [8] | herbicidal effect, K: Italian ryegrass [9] | herbicidal effect on D: Chinese sprangletop [10] | herbicidal effect, N: redroot pigweed [11] | herbicidal effect, J: blackgrass [12] | N: redroot pigweed, herbicidal effect (criteria 0-5) [13] | herbicidal effect, R: persian speedwell [14] | K: Italian ryegrass, herbicidal effect (criteria 0-5) [15] | Herbicidal effect, B: Japanese bulrush [16] | R: persian speedwell, herbicidal effect (criteria 0-5) [17] | H: barnyard grass, herbicidal effect (criteria 0-5) [18] | herbicidal effect, M: velvetleaf [19] | G: green foxtail, herbicidal effect (criteria 0-5) [20] | further results
CSc1ccncc1-c1sc2ccc(F)cc2c1-c1c(O)c(C)nn(C)c1=O [2-389] | 5 (Herbicidal rate of 90% or more (almost completely withered)) | 5 (Herbicidal rate of 90% or more (almost completely withered)) | 1 (Herbicidal rate of 5% or more and less than 20%) | 3 (Herbicidal rate of 40% or more and less than 70%) | 5 (Herbicidal rate of 90% or more (almost completely withered)) | 3 (Herbicidal rate of 40% or more and less than 70%) | 3 (Herbicidal rate of 40% or more and less than 70%) | 5 (Herbicidal rate of 90% or more (almost completely withered)) | 3 (Herbicidal rate of 40% or more and less than 70%) | 3 (Herbicidal rate of 40% or more and less than 70%) | 5 (Herbicidal rate of 90% or more (almost completely withered)) | 0 (Herbicidal rate of 5% or less (almost no effect)) | 5 (Herbicidal rate of 90% or more (almost completely withered)) | 5 (Herbicidal rate of 90% or more (almost completely withered)) | 4 (Herbicidal rate of 70% or more and less than 90%) | 0 (Herbicidal rate of 5% or less (almost no effect)) | 5 (Herbicidal rate of 90% or more (almost completely withered)) | 5 (Herbicidal rate of 90% or more (almost completely withered)) | 3 (Herbicidal rate of 40% or more and less than 70%) | 5 (Herbicidal rate of 90% or more (almost completely withered)) | I: wild oat, herbicidal effect (criteria 0-5) [21]: 4 (Herbicidal rate of 70% or more and less than 90%); herbicidal effect, I: wild oat [22]: 1 (Herbicidal rate of 5% or more and less than 20%); herbicidal effect, G: green foxtail [23]: 3 (Herbicidal rate of 40% or more and less than 70%); herbicidal effect, L: windgrass [24]: 1 (Herbicidal rate of 5% or more and less than 20%); herbicidal effect, O: lambsquarters [25]: 5 (Herbicidal rate of 90% or more (almost completely withered)); herbicidal effect, P: chickweed [26]: 4 (Herbicidal rate of 70% or more and less than 90%); L: windgrass, herbicidal effect (criteria 0-5) [27]: 4 (Herbicidal rate of 70% or more and less than 90%); M: velvetleaf, herbicidal effect (criteria 0-5) [28]: 5 (Herbicidal rate of 90% or more (almost completely withered)); P: chickweed, herbicidal effect (criteria 0-5) [29]: 5 (Herbicidal rate of 90% or more (almost completely withered)); Herbicidal effect, C: oval-leafed pondweed [30]: 0 (Herbicidal rate of 5% or less (almost no effect))
Cc1nn(C)c(=O)c(-c2c(-c3ccc(Cl)s3)sc3ccc(F)cc23)c1O [2-390] | 5 (Herbicidal rate of 90% or more (almost completely withered)) | 5 (Herbicidal rate of 90% or more (almost completely withered)) | 4 (Herbicidal rate of 70% or more and less than 90%) | 5 (Herbicidal rate of 90% or more (almost completely withered)) | 5 (Herbicidal rate of 90% or more (almost completely withered)) | 2 (Herbicidal rate of 20% or more and less than 40%) | 4 (Herbicidal rate of 70% or more and less than 90%) | 5 (Herbicidal rate of 90% or more (almost completely withered)) | 5 (Herbicidal rate of 90% or more (almost completely withered)) | 3 (Herbicidal rate of 40% or more and less than 70%) | 5 (Herbicidal rate of 90% or more (almost completely withered)) | 5 (Herbicidal rate of 90% or more (almost completely withered)) | 5 (Herbicidal rate of 90% or more (almost completely withered)) | 5 (Herbicidal rate of 90% or more (almost completely withered)) | 5 (Herbicidal rate of 90% or more (almost completely withered)) | 0 (Herbicidal rate of 5% or less (almost no effect)) | 5 (Herbicidal rate of 90% or more (almost completely withered)) | 4 (Herbicidal rate of 70% or more and less than 90%) | 3 (Herbicidal rate of 40% or more and less than 70%) | 5 (Herbicidal rate of 90% or more (almost completely withered)) | I: wild oat, herbicidal effect (criteria 0-5) [21]: 4 (Herbicidal rate of 70% or more and less than 90%); herbicidal effect, I: wild oat [22]: 1 (Herbicidal rate of 5% or more and less than 20%); herbicidal effect, G: green foxtail [23]: 5 (Herbicidal rate of 90% or more (almost completely withered)); herbicidal effect, L: windgrass [24]: 4 (Herbicidal rate of 70% or more and less than 90%); herbicidal effect, O: lambsquarters [25]: 4 (Herbicidal rate of 70% or more and less than 90%); herbicidal effect, P: chickweed [26]: 4 (Herbicidal rate of 70% or more and less than 90%); L: windgrass, herbicidal effect (criteria 0-5) [27]: 5 (Herbicidal rate of 90% or more (almost completely withered)); M: velvetleaf, herbicidal effect (criteria 0-5) [28]: 5 (Herbicidal rate of 90% or more (almost completely withered)); P: chickweed, herbicidal effect (criteria 0-5) [29]: 5 (Herbicidal rate of 90% or more (almost completely withered)); Herbicidal effect, C: oval-leafed pondweed [30]: 0 (Herbicidal rate of 5% or less (almost no effect))
